Where “and” joins values, the source holds several entries; their conditions need not be identical. Equal values may be shown once.
What was measured:
F98 rat glioma cells [1] = assay: In vitro 10B uptake in F98 cells (ICP-AES); assay type: cell-based; details: 24 h incubation in DMEM with 1 mM boron compound
Protocol: For the in vitro ^10B uptake study, B16 mouse melanoma cells, C6 rat glioma cells, and F98 rat glioma cells were used. B16 and C6 cells were used for in vitro testing at Osaka Prefecture University. Based on results from initial in vitro screening, the in vitro ^10B uptake study using F98 glioma cells were performed at Osaka Medical College. Four hundred thousand cells were seeded in a tissue culture dish (100 × 20 mm; Becton Dickinson, Franklin Lakes, NJ, USA) with DMEM supplemented with 10% FBS and 10% penicillin and streptomycin at 37 °C in a 5% CO2 atmosphere. After incubation for 4 days at 37 °C, the medium was removed, and DMEM with 10% FBS containing 1 mM KA-BSH, BSH, or BPA was added to each dish. The cells were incubated for an additional 24 h at 37 °C. The medium was then removed, and the cells were washed twice with 4 °C phosphate-buffered saline (PBS) and detached with trypsin–ethylenediamine tetraacetic acid solution. PBS was then added, and cells were digested overnight with 1 N nitric acid solution (Wako Pure Chemical Industries, Osaka, Japan), and ^10B uptake was determined by inductively coupled plasma atomic emission spectrometry (ICP-AES) using an iCAP6000 emission spectrometer (Hitachi High-Technologies, Tokyo, Japan).

F98 rat glioma cells [2] = assay: Cell viability assay (WST-8) in F98 cells; assay type: cell-based; details: WST-8 test, read-out: IC50 (cytotoxicity)
Protocol: The cytotoxicity of KA-BSH was assayed using the water soluble tetrazolium (WST)-8 assay with a cell-counting kit (Wako Pure Chemicals, Osaka, Japan) following a modified version of the manufacturer-provided protocols. Relative cell survival was calculated according to Equation (1):(1) Relative cell survival (%)=absorbance value of compound treated well/absorbance value of untreated well×100

F98 glioma bearing rats = assay: Biodistribution in F98 glioma bearing rats (ICP-AES); assay type: in vivo, rat; details: iv
Description: All animal experimental procedures were approved by the Animal Use Review Board and Ethical Committee of Osaka Medical College (No. 25092, 28 October 2015) and Kyoto University Research Reactor Institute (KURRI, No. 25030-13, 1 April 2015), and performed following the Guide for the Care and Use of Laboratory Animals. Eight-week-old, male Fischer 344 rats weighing between 200 and 250 g were used (Japan SLC, Inc. Shizuoka, Japan). Rats were anesthetized with an intraperitoneal (ip) injection of a mixture of medetomidine 0.15 mg, midazolam 2 mg, and butorphanol 2.5 mg/kg body weight (bw). The head of each rat was fixed with a stereotactic frame (Model 900; David Kopf Instruments, Tujunga, CA, USA). The scalp was incised at the midline and a small burr hole was drilled into the skull (1 mm posterior and 4 mm right-lateral to the bregma), using an electric drill. And then, F98 glioma cells were injected into the brain using a 25 µL Hamilton microsyringe with a 26-gauge needle (model 1700 RN, Hamilton Bonaduz AG, Bonaduz, Switzerland). The needle was inserted at a 5 mm depth from the skull and F98 cells were diluted in 10 µL of DMEM containing low-gelling temperature agarose at a concentration of either 10^3 for therapeutic experiments or 10^5 cells for biodistribution experiments. They were injected over 30 s using an automatic infuser pump. The needle entry hole was immediately sealed with bone wax and the incised scalp was closed with 3-0 silk sutures (Ethicon, North Ryde, NSW). After surgery, all animals were given atipamezole hydrochloride (0.15 mg/kg bw, ip).
Biodistribution studies were performed in Fischer rats bearing intracerebral implants of F98 rat glioma cells. 10–13 days after tumor implantation of 10^5 F98 glioma cells, when signs of a progressively growing tumor were evident (weight loss, lethargy, hunching, and ataxia), biodistribution studies were initiated at which time the animals had tumors weighing 90–180 mg. […] To compare its biodistribution with that of BPA or BSH, another group of rats received an iv injection of BPA at a concentration of 10 mg ^10B/kg bw or BSH at a concentration of 30 mg ^10B/kg bw. Biodistribution was determined 1 and 3 h after termination of iv injection. Animals were euthanized by an overdose of sevoflurane following which tumors and normal tissues, consisting of ipsilateral brain, contralateral brain, blood, heart, lung, liver, spleen, kidney, skin, and muscle, were removed and weighed for ^10B determination by ICP-AES.

Compound: N[C@@H](Cc1ccc(B(O)O)cc1)C(=O)O [BPA, boronophenylalanine, reference compound]
- 10B concentration of F98 rat glioma cells (F98 rat glioma cells [1]): 0.654 ± 0.062 µg 10B/10^7 cells
- IC50 (F98 rat glioma cells [2]): > 20000 µM
- 10B concentration, Blood (F98 glioma bearing rats; 10 mg 10B/kg, 1 h): 6.65 µg 10B/g
- 10B concentration, Contralateral brain (F98 glioma bearing rats; 10 mg 10B/kg, 1 h): 3.19 µg 10B/g
- 10B concentration, Heart (F98 glioma bearing rats; 10 mg 10B/kg, 1 h): 6.12 µg 10B/g
- 10B concentration, Ipsilateral brain (F98 glioma bearing rats; 10 mg 10B/kg, 1 h): 2.94 µg 10B/g
- 10B concentration, Kidney (F98 glioma bearing rats; 10 mg 10B/kg, 1 h): 27.57 µg 10B/g
- 10B concentration, Liver (F98 glioma bearing rats; 10 mg 10B/kg, 1 h): 5.40 µg 10B/g
- 10B concentration, Lung (F98 glioma bearing rats; 10 mg 10B/kg, 1 h): 5.74 µg 10B/g
- 10B concentration, Muscle (F98 glioma bearing rats; 10 mg 10B/kg, 1 h): 5.25 µg 10B/g
- 10B concentration, Skin (F98 glioma bearing rats; 10 mg 10B/kg, 1 h): 7.22 µg 10B/g
- 10B concentration, Spleen (F98 glioma bearing rats; 10 mg 10B/kg, 1 h): 7.58 µg 10B/g
- 10B concentration, Tumor (F98 glioma bearing rats; 10 mg 10B/kg, 1 h): 13.54 µg 10B/g and 13.54 ± 4.82 µg 10B/g
- T/Bl (tumor to blood ratio) (F98 glioma bearing rats; 10 mg 10B/kg, 1 h): 2.00
- T/Br (tumor to normal contralateral brain ratio) (F98 glioma bearing rats; 10 mg 10B/kg, 1 h): 4.21
- 10B concentration, Blood (F98 glioma bearing rats; 10 mg 10B/kg, 3 h): 4.41 µg 10B/g
- 10B concentration, Contralateral brain (F98 glioma bearing rats; 10 mg 10B/kg, 3 h): 2.95 µg 10B/g
- 10B concentration, Heart (F98 glioma bearing rats; 10 mg 10B/kg, 3 h): 3.92 µg 10B/g
- 10B concentration, Ipsilateral brain (F98 glioma bearing rats; 10 mg 10B/kg, 3 h): 3.29 µg 10B/g
- 10B concentration, Kidney (F98 glioma bearing rats; 10 mg 10B/kg, 3 h): 11.69 µg 10B/g
- 10B concentration, Liver (F98 glioma bearing rats; 10 mg 10B/kg, 3 h): 3.54 µg 10B/g
- 10B concentration, Lung (F98 glioma bearing rats; 10 mg 10B/kg, 3 h): 4.12 µg 10B/g
- 10B concentration, Muscle (F98 glioma bearing rats; 10 mg 10B/kg, 3 h): 4.89 µg 10B/g
- 10B concentration, Skin (F98 glioma bearing rats; 10 mg 10B/kg, 3 h): 4.80 µg 10B/g
- 10B concentration, Spleen (F98 glioma bearing rats; 10 mg 10B/kg, 3 h): 6.02 µg 10B/g
- 10B concentration, Tumor (F98 glioma bearing rats; 10 mg 10B/kg, 3 h): 11.05 µg 10B/g
- T/Bl (tumor to blood ratio) (F98 glioma bearing rats; 10 mg 10B/kg, 3 h): 2.53
- T/Br (tumor to normal contralateral brain ratio) (F98 glioma bearing rats; 10 mg 10B/kg, 3 h): 3.83

Compound: dodecaboranethiol [BSH, reference compound]
- 10B concentration of F98 rat glioma cells (F98 rat glioma cells [1]): 0.508 ± 0.072 µg 10B/10^7 cells
- IC50 (F98 rat glioma cells [2]): 1680 µM
- 10B concentration, Blood (F98 glioma bearing rats; 30 mg 10B/kg, 1 h): 19.17 µg 10B/g
- 10B concentration, Contralateral brain (F98 glioma bearing rats; 30 mg 10B/kg, 1 h): 0.32 µg 10B/g
- 10B concentration, Heart (F98 glioma bearing rats; 30 mg 10B/kg, 1 h): 3.25 µg 10B/g
- 10B concentration, Ipsilateral brain (F98 glioma bearing rats; 30 mg 10B/kg, 1 h): 0.44 µg 10B/g
- 10B concentration, Kidney (F98 glioma bearing rats; 30 mg 10B/kg, 1 h): 20.84 µg 10B/g
- 10B concentration, Liver (F98 glioma bearing rats; 30 mg 10B/kg, 1 h): 20.81 µg 10B/g
- 10B concentration, Lung (F98 glioma bearing rats; 30 mg 10B/kg, 1 h): 12.70 µg 10B/g
- 10B concentration, Muscle (F98 glioma bearing rats; 30 mg 10B/kg, 1 h): 5.25 µg 10B/g
- 10B concentration, Skin (F98 glioma bearing rats; 30 mg 10B/kg, 1 h): 7.99 µg 10B/g
- 10B concentration, Spleen (F98 glioma bearing rats; 30 mg 10B/kg, 1 h): 5.68 µg 10B/g
- 10B concentration, Tumor (F98 glioma bearing rats; 30 mg 10B/kg, 1 h): 5.49 µg 10B/g and 5.49 ± 0.25 µg 10B/g
- T/Bl (tumor to blood ratio) (F98 glioma bearing rats; 30 mg 10B/kg, 1 h): 0.29
- T/Br (tumor to normal contralateral brain ratio) (F98 glioma bearing rats; 30 mg 10B/kg, 1 h): 17.61
- 10B concentration, Blood (F98 glioma bearing rats; 30 mg 10B/kg, 3 h): 5.16 µg 10B/g
- 10B concentration, Contralateral brain (F98 glioma bearing rats; 30 mg 10B/kg, 3 h): 0.24 µg 10B/g
- 10B concentration, Heart (F98 glioma bearing rats; 30 mg 10B/kg, 3 h): 1.15 µg 10B/g
- 10B concentration, Ipsilateral brain (F98 glioma bearing rats; 30 mg 10B/kg, 3 h): 0.36 µg 10B/g
- 10B concentration, Kidney (F98 glioma bearing rats; 30 mg 10B/kg, 3 h): 10.83 µg 10B/g
- 10B concentration, Liver (F98 glioma bearing rats; 30 mg 10B/kg, 3 h): 8.10 µg 10B/g
- 10B concentration, Lung (F98 glioma bearing rats; 30 mg 10B/kg, 3 h): 4.92 µg 10B/g
- 10B concentration, Muscle (F98 glioma bearing rats; 30 mg 10B/kg, 3 h): 0.87 µg 10B/g
- 10B concentration, Skin (F98 glioma bearing rats; 30 mg 10B/kg, 3 h): 4.00 µg 10B/g
- 10B concentration, Spleen (F98 glioma bearing rats; 30 mg 10B/kg, 3 h): 2.74 µg 10B/g
- 10B concentration, Tumor (F98 glioma bearing rats; 30 mg 10B/kg, 3 h): 3.01 µg 10B/g
- T/Bl (tumor to blood ratio) (F98 glioma bearing rats; 30 mg 10B/kg, 3 h): 0.61
- T/Br (tumor to normal contralateral brain ratio) (F98 glioma bearing rats; 30 mg 10B/kg, 3 h): 12.71

From article PMC7349888, “Synthesis and Evaluation of Dodecaboranethiol Containing Kojic Acid (KA-BSH) as a Novel Agent for Boron Neutron Capture Therapy” (Cells, 2020)
